These are literature values, as cited in patent US20190134140A1, “ORALLY ADMINISTERED COMPOSITION FOR TREATING CYSTIC FIBROSIS, COPD, ASTHMA AND OTHER INFLAMMATORY CONDITIONS” (priority 2017, published 2019).

One data set has as its target dF508 (Homo sapiens, UniProt P13569, DEL508-508).

Where two headings read alike, the source gives them in different places.

Chain of dF508 (P13569 with tags, fused parts or gaps DEL508-508): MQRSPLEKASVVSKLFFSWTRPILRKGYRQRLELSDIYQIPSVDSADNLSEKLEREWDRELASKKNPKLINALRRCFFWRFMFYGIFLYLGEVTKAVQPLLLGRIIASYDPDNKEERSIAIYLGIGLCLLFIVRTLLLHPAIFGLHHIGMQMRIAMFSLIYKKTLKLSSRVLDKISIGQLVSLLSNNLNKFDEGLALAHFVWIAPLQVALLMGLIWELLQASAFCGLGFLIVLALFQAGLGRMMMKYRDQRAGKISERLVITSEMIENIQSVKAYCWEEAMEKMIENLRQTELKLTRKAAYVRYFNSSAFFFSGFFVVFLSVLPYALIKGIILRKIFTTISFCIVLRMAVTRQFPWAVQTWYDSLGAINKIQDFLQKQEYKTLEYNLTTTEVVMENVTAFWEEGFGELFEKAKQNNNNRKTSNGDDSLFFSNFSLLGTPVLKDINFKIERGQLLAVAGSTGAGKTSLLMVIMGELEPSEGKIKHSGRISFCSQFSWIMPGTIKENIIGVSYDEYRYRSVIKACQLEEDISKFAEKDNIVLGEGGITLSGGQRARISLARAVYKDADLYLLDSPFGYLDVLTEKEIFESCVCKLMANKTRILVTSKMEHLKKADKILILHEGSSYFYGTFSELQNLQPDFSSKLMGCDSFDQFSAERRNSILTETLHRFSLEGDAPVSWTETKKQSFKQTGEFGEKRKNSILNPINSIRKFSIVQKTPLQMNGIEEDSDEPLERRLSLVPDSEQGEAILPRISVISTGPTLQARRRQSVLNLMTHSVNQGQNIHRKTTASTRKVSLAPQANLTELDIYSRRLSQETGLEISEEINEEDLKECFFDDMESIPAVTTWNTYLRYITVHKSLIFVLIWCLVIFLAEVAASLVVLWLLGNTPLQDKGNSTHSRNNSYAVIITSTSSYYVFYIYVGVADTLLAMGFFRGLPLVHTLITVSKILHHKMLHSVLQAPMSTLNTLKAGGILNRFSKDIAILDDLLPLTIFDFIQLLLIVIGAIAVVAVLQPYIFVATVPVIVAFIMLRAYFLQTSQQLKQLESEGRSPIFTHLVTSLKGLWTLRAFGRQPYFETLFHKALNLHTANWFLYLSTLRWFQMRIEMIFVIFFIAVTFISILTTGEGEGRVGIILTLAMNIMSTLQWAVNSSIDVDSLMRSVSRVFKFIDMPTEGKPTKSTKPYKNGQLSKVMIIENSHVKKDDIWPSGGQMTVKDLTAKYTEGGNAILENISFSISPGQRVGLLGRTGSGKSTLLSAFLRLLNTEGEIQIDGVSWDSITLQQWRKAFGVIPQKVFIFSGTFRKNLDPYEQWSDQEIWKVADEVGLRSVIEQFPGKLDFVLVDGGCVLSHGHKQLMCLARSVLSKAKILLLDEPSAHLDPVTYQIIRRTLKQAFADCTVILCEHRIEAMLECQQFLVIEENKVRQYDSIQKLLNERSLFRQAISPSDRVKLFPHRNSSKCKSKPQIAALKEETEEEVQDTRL

With `O=c1c(O)c(-c2ccc(O)c(O)c2)oc2cc(O)cc(O)c12` [Quercetin], the “activation of dF508” value on dF508 is “activate dF508”. Moreover, the ciliary beat frequency result with ciliary beat frequency is “increase ciliary beat frequency”.

On to `Oc1ccc(C=Cc2cc(O)cc(O)c2)cc1` [Resveratrol], for which the enhancement in permeability is, setting by setting: (combined with curcumin) 300%; (combined with piperine) 350%; (combined with quercetin) 310%.
